Reference: patent publication US7718640B2, “Methods and pharmaceutical compositions for reliable achievement of acceptable serum testosterone levels” (Bayer-Schering Pharma AG, priority 2003, dated 2010)

Experiments:
[1] = Long-term efficacy and safety study of intramuscular TU 1000 mg in hypogonadal men (Example 2); type: in vivo; details: 4 TU doses of 1000 mg i.m. per year (12-week intervals), 4 ml castor oil:benzyl benzoate 1:1.7
Method: The therapeutic efficacy and safety of a formulation containing testosterone undecanoate 1000 mg in a vehicle of 4 ml of a mixture of castor oil and benzyl benzoate in a ratio of 1:1.7 by volume has been investigated in hypogonadal men. The formulation (4 mL, 1000 mg of testosterone undecanoate) was injected intramuscularly to the hypogonadal men according to the following scheme: • initial phase comprising 4 injections of the formulation with intervals of 6 weeks between the injections. • maintenance phase comprising injecting the formulation in intervals of 10 or 12 weeks between injections.
The present study relates to a one-arm study examining the efficacy and safety of long-term intramuscular injection of testosterone undecanoate for the treatment of symptoms of hypogonadism in men. The patients received 4 testosterone undecanoate injections of 1000 mg the first three times of injections with an interval of 6 weeks, the 4th injection and subsequent injections with 12-week intervals.

[2] = Pharmacokinetic profile: total serum testosterone after intramuscular TU in hypogonadal men (Example 3, FIG. 1); type: in vivo
Method: See Example 3 for the injection scheme. […] The filled lines show the continued injection of 1000-mg TU with an interval of 12 weeks between injections.
The pharmacokinetic profile of a formulation containing testosterone undecanoate (TU) 1000 mg in a vehicle of 4 ml of a mixture of castor oil and benzyl benzoate in a ratio of 1:1.7 by volume was tested in hypogonadal men (having testosterone levels in serum of less than 10 nmol/l). An initial phase of two first intramuscularly injections of 1000 mg TU with 6-weeks interval between the two injections, followed by a maintenance phase of subsequent 3 intramuscularly injections of 1000 mg TU separated by an interval of 10 weeks between each of the injections. Then 1000 mg of testosterone undecanoate (TU) was intramuscularly injected every 12 weeks. 5 treatment periods were provided with an interval of 12 weeks between each injection.

[3] = Comparison of initial phases with 6 versus 10 weeks between injections; serum testosterone (total) before each additional injection (Example 4); type: in vivo, men; details: for Mean testosterone level (total) in serum after 1st injection / Mean testosterone level (total) in serum after 2nd injection: 6 men
Method: The pharmacokinetic profile of a formulation containing testosterone undecanoate (TU)1000 mg in a vehicle of 4 ml of a mixture of castor oil and benzyl benzoate in a ratio of 1:1.7 by volume was tested using two different regimens in hypogonadal men.
In regimen A, an initial phase of two first intramuscularly injections of 1000 mg TU with mean of 9.2-weeks (64.4 days) interval between the two injections, followed by a maintenance phase of subsequent intramuscularly injections of 1000 mg TU separated by an interval of a mean of 10.2 weeks ([…]) after second injection.
In regimen B, an initial phase of two first intramuscularly injections of 1000 mg TU with mean of 6.1-weeks (42.5 days) interval between the first two injections, followed by a maintenance phase of subsequent intramuscularly injections of 1000 mg TU separated by an interval of mean of 10.1 weeks (70.5 days) after second injections.
The concentration of testosterone (total) was determined in serum before each additional injection of TU.

17β-hydroxyandrost-4-en-3-one undecanoate [TU]
restoration of physiological serum T levels [1]: sufficient to restore physiological serum T levels in all 36 patients over most of the measurement times
minimum testosterone levels (total levels) after 12 weeks ([2]; 12 weeks after injection of 1000 mg TU i.m., maintenance phase): ≥ 10 nmol
minimum testosterone levels for a treatment period of 14 weeks ([2]; 14 weeks, upon extrapolating the serum levels of testosterone, lowest acceptable concentration about 10 nmol): The same was shown to apply
serum testosterone levels throughout the entire period between injections ([2]; first injection interval 6 weeks, subsequent injections at 10 or 12 week intervals): 10 to 35 nmol/L
maximal and minimal testosterone levels (total levels) in serum ([2]; hypogonadal men, 1000 mg TU i.m. in 4 ml castor oil:benzyl benzoate 1:1.7, 2 injections 6 weeks apart, then 3 at 10-week, then 12-week intervals): within the physiological acceptable range
accumulation of testosterone over time ([2]; same scheme as Example 3, 1000 mg TU i.m.): no accumulation of testosterone is seen over time
Mean testosterone level (total) in serum after 1st injection ([3]; Regime A, mean 9.2 weeks after 1st injection of 1000 mg TU i.m.): 7.0 nmol/L
Mean testosterone level (total) in serum after 2nd injection ([3]; Regime A, mean 10.8 weeks after 2nd injection of 1000 mg TU i.m.): 8.8 nmol/L
Mean testosterone level (total) in serum after 1st injection ([3]; Regime B, mean 6.1 weeks after 1st injection of 1000 mg TU i.m.): 12.2 nmol/L
Mean testosterone level (total) in serum after 2nd injection ([3]; Regime B, mean 10.1 weeks after 2nd injection of 1000 mg TU i.m.): 12.5 nmol/L
sufficiency of testosterone levels over the entire period up to the following injection ([3]; Regimen A: long-term intervals in both initial and maintenance phase): do not result in the sufficient levels of testosterone above 10 nmol
testosterone levels over the period between injections ([3]; Regimen B: interval in the initial phase decreased to 6 weeks): above 10 nmol/l
